Data as given in patent US10239839B2, “Compounds and formulations suitable for radical scavenging” (Solenne BV, priority 2006, dated 2019).
Entries after “also recorded” stand apart in the source; their conditions may differ.

Columns and labels:
[1] = Photo-oxidation of adamantylideneadamantane, UV light source; settings: compared with α-tocopherol
Experimental: [e] Two beakers were irradiated simultaneously with a UV light source (Philips HB172, fitted with 4 Philips Cleo 15 W luminescent tubes; UV-type 3). Beaker 1 contained a mixture of 301.0 mg of adamantylideneadamantane and 24.9 mg of α-tocopherol (Aldrich, >97%) in 100 mL of chlorobenzene. This solution was placed in a 250 mL beaker, which was wrapped with paper and Al-foil to prevent light going through the side of the beaker. The solution was stirred magnetically and irradiated 7 hours with a UV lamp (Philips HB172, fitted with 4 Philips Cleo 15 W luminescent tubes; UV-type 3), which was mounted horizontally directly above the beakers. The reaction mixture was concentrated in vacuo and the resulting solid material was analyzed by ^1H NMR spectroscopy as described above. […] The ratio of the integrals of unreacted adamantylideneadamantane (at 2.9 ppm) to adamantylideneadamantane peroxide was 90:10.
Beaker 2 contained a mixture of 301.2 mg of adamantylideneadamantane and 25.0 mg of HG2-V2 in 100 mL of chlorobenzene. This solution was placed in a 250 mL beaker, which was wrapped with paper and Al-foil to prevent light going through the side of the beaker. […] The reaction mixture was concentrated in vacuo and the resulting solid material was analyzed by ^1H NMR spectroscopy as described above. […]

[2] = Stability of solutions exposed to light and air; format: physicochemical; settings: dissolved in grape seed oil, darker than parent oil, up to a year
Text: For example, it is known in the art that a dilute solution of C60 in toluene exposed to light and air will undergo approximately 10% or more degradation and loss of the C60 due to epoxidation and subsequent breakdown of the fullerene cage resulting from singlet oxygen generated via photoexcitation of the C60. This can be seen even visually since the decomposed C60 forms a blackish product which settles out of solution.

[3] = Percutaneous absorption study; format: in vitro ADME; settings: 0.3% (wt.) in grape seed oil
Experimental: [d] A percutaneous absorption study was conducted with 6 fresh viable skin samples from one donor, where 20 times recommended usage level (recommended usage level is 6-8 drops on the face) of a 0.3% (wt.) formulation of HG2-V2 in grape seed oil was used. Analysis by extraction of receptor fluid with toluene and analysis with HPLC-MS (using Buckyprep analytical column) was performed.

erythema = assay: Erythemal response to 3×MED full spectrum UV light after occluded patches; format: in vivo, human; settings: 0.3% wt. in grape seed oil, 3×MED 24 hours after treatment, 25 subjects
Experimental: [c] 25 human subjects, for which the minimal erythemal dose (MED) of full spectrum UV light (Solar Light Company's 601-300 Multiport Simulator, emitting light of a Xenon-Shortarc Lamp) had been determined, were treated with 6 occluded patches (on the back) with a formulation of HG2-V2 (0.3% wt.) in grape seed oil. 24 hours after patch treatment, the regions of application were exposed to 3×MED of the same light source. […] This provides evidence that the formulation provided an anti-erythemic effect, since erythema scores for 3×MED should range between 1-3.

[4] = UV-Vis absorbance / optical density; format: physicochemical
Experimental: All of these oils show an absorbance (A) at λ=570 nm of A570 less than 0.05 when measuring the neat oil against water, using 1 cm cuvettes as is general practice. The above absorbance profiles were measured by placing the neat oil in the 1 cm path length spectrometer cuvette. […] Olive oil typically has a darker appearance (and is thus more optically dense) than the other oils, and this can be seen in the absorption profile.
In many instances, the concentration of fullerene, fullerene derivative, or fullerene-derived ketolactam desired due to considerations of optimal antioxidant efficacy is higher than can be conveniently measured by standard UV/vis spectroscopy. For concentrated solutions, dilution may be necessary to obtain a proper spectrum in the so-called visible area (λ=400-700 nm). If such concentrated solutions are measured without dilution, A570 may exceed a limit to obtain an accurate measurement, or may even exceed the maximum value that can be measured by the spectrometer. As an example, the spectrum of a concentrated solution of HG2-V2 in grapeseed oil (9.2 mg HG2-V2 dissolved in 3 mL), diluted×10 (v/v) with toluene, is shown in FIG. 8. Here, A570 is 0.24, meaning that without dilution it would give approximately A=2.4. Common UV-Vis spectrometers can usually measure up to A≈5, meaning that for this solution a large part of the spectrum (λ<510 nm) could not have been accurately measured without dilution.
400 mg HG2-V2 was added to 100 g of commercially available liquid grape seed oil and stirred with mechanical stirring for 4 hours at 25 deg. C. The HG2-V2 dissolved to give a clear, dark, amber colored solution of 0.4% (wt.) active in a simple solution. The optical density measured for this solution was over 2 AU/cm, and after 10/1 dilution with toluene was over 0.2.

[5] = natural sunlight, chlorobenzene
Experimental: [f] Two beakers were irradiated simultaneously by natural sunlight. Beaker 2 contained a solution of 300.5 mg of adad and 17.9 mg of PCBM in 100 mL of chlorobenzene. This solution was placed in a 250 mL beaker, wrapped with paper and Al-foil to prevent light going through the side of the beaker. […] The resulting solution was put in a brown-glass bottle for transport. The solvent was removed in vacuo and the resulting solid material was analyzed by ^1H NMR spectroscopy as described above.
This solution was placed in a 250 mL beaker, wrapped with paper and Al-foil to prevent light going through the side of the beaker. […] The resulting solution was placed in a brown-glass bottle for transport. Approximately 10 mL of the reaction mixture was filtered and put aside. The remaining amount was concentrated in vacuo and the resulting solid material was analyzed by ^1H NMR spectroscopy as described above.
This solution gave an absorbance of A=0.14 at 646 nm (against neat chlorobenzene).

[6] = Tagmatarchis et al.; Hauke et al.; cited from earlier work
[7] = Photo-oxidation of adamantylideneadamantane (ad=ad) to monitor ^1O2 formation, sodium lamp; settings: bubbling air
Text: Excited fullerene, triplet+O2→fullerene+singlet oxygen (^1O2) The ^1O2 thus generated can react with a fullerene, giving an oxidized fullerene, or with other molecules that can react with ^1O2. One such molecule is adamantylideneadamantane (ad=ad), which is known to react with ^1O2, giving a stable 1,2-dioxetane, adamantylideneadamantane peroxide, as the product (J. H. Wieringa et al., Tetrahedron Letters 1972, 2, 169). This reaction is depicted in FIG. 11. This oxidation of ad=ad can be used to monitor the formation of ^1O2 by fullerenes or fullerene derivatives.
In a first set of experiments, Phenyl-C61-Butyric-Acid-Methyl-Ester (PCBM,) and HG2-V1 were compared. […] After reaction overnight, the solvent was removed in vacuo and the residual material analyzed by ^1H NMR. […]
In a second set of experiments, the above reaction was done at a high concentration (20 mg/mL) of ad=ad, this time using CCl4 as the solvent. […] Thus, samples from the reaction can be directly analyzed by ^1H NMR, when diluted with, e.g., CDCl3. […]
Samples of 150-200 μL were taken from the reaction and diluted with ˜400 μL of CDCl3. […] Thus, the formation of adamantylideneadamantane peroxide was monitored over time, by following the appearance of the signal at 2.65 ppm. […]

For “2a-Aza-1,2(2a)-homo-1,9-seco[5,6]fullerene-C60—Ih-1,9-dione,2a-[[4-docosyloxy)-3-methoxyphenyl]methyl] [HG2-V2]”, the “net generation of ^1O2 under UV irradiation, equal weight percentage” value [1] was “less for HG2-V2 than α-tocopherol”, the “decomposition on exposure to light and air” value [2] was “reduced amount of decomposition products” and the percutaneous absorption ([3]; 20 times recommended usage level, receptor fluid 8 hr and 24 hr) was “less than 0.004%”. For the same compound, the “content in receptor fluid (HPLC-MS)” value ([3]; 8 hr and 24 hr collection points) was “no HG2-V2 at or above analytical detection limit”, the “average erythemic response on the erythema response scale (1 = first sign of erythema)” value (erythema) was 0.77 and the A570 ([4]; 9.2 mg in 3 mL grapeseed oil, diluted ×10 (v/v) with toluene) was 0.24. The A570 without dilution ([4]; 9.2 mg in 3 mL grapeseed oil, extrapolated) was roughly 2.4, the optical density ([4]; 0.4% (wt.) in grape seed oil) was “over 2 AU/cm” and the “optical density after 10/1 dilution with toluene” value ([4]; 0.4% (wt.) in grape seed oil) was “over 0.2”.
With `CN(C)c1ccc2nc3ccc(=[N+](C)C)cc-3sc2c1` [MB, methylene blue] the “average optical absorption between 400 nm and 700 nm compared to PCBM” value [4] was “about 10 times”, the “amount of ^1O2 compared to PCBM on an equal absorption and equimolar basis” value [5] was 25 times and the “net generation of ^1O2 compared to PCBM on an equimolar basis” value [5] was 250 times.
In the case of (C59N)2, the “^1O2 quantum yields (in words)” value [6] is given as “reduced ^1O2 quantum yields”.
In the case of C59NH, the “^1O2 quantum yields (in words)” value [6] is given as “reduced ^1O2 quantum yields”.
In the case of “Phenyl-C61-Butyric-Acid-Methyl-Ester [PCBM]”, the “production of adamantylideneadamantane peroxide over time (ratio of peak at 2.65 ppm and signal at 2.88 ppm of ad=ad)” value ([7]; CCl4, ad=ad 20 mg/mL, 150 W sodium lamp, equal molarity) is reported as “much faster” and the “amount of adamantylideneadamantane peroxide formed (^1H NMR signal at 2.65 ppm)” value ([7]; chlorobenzene, ad=ad 1.5 mg/mL, 400 W sodium lamp, 16.5-17 h) is reported as “much larger than that formed when using HG2-V1; also recorded: substantial amount”.
